These are literature values, as cited in EP4659596A1 (Nicoventures Trading Limited, priority 2024, dated 2025).

The conditions of the data set: partition coefficient between octanol and water; organic acids of Table 1.
The term logP denotes a log measure of how a compound divides between an organic and an aqueous phase. Regarding `CC(C)[C@@H]1CC[C@@H](C)C[C@H]1OC(=O)CCC(=O)O` [monomenthyl succinate], the logP is given as 3.
For ethyl benzoic acid, the logP is 2.9.
isopropyl benzoic acid: the logP was 3.5.
